The values below come from US20260274895A1, “DE NOVO DESIGNED MEMBRANE-TRAVERSING AND ORALLY BIOAVAILABLE MACROCYCLES” (UNIVERSITY OF WASHINGTON, priority 2022, published 2026).

Where a SMILES comes first, the peptide text is derived from it. [ ]: non-standard residue; d: D form. dNMeI = CC[C@@H](C)[C@@H](NC)C(=O)O; NMeF = CN[C@@H](Cc1ccccc1)C(=O)O; dNMeF = CN[C@H](Cc1ccccc1)C(=O)O; NMeL = CN[C@@H](CC(C)C)C(=O)O; dNMeL = CN[C@H](CC(C)C)C(=O)O; NMeV = CN[C@H](C(=O)O)C(C)C; NMeA = CN[C@@H](C)C(=O)O; dNMeA = CN[C@H](C)C(=O)O

As a reminder, the Papp is a coefficient for how fast a substance crosses the barrier.

The conditions of this data set: PAMPA, PAMPA_Papp_Avg (apparent permeability). (In general: In PAMPA a lipid-coated filter parts donor from acceptor wells.)
Consider `CC[C@@H](C)[C@H]1NC(=O)[C@H]2CCCN2C(=O)[C@@H]2CCCN2C(=O)[C@@H]([C@H](C)CC)NC(=O)[C@@H](Cc2ccccc2)NC(=O)[C@@H](Cc2ccccc2)N(C)C(=O)[C@@H]2CCCN2C(=O)[C@@H](C(C)C)NC1=O` [Design D8.33, fiPpivP*f] (cyclo(P[dNMeF][dF][dI]P[dP][dI][dV])), for which the Papp worked out at 6 ×10⁻⁶ cm/s.

Consider `CC[C@H](C)[C@@H]1NC(=O)[C@@H](C)N(C)C(=O)[C@@H](C)N(C)C(=O)[C@@H]2CCCN2C(=O)[C@H](CC(C)C)NC(=O)[C@H](CC(C)C)NC(=O)[C@@H](CC(C)C)NC(=O)[C@@H]2CCCN2C(=O)[C@H]2CCCN2C1=O` [Design D9.11, PlLLP*a*aIp] (cyclo([dL]LLP[dNMeA][dNMeA]I[dP]P)), for which the apparent permeability (Papp) worked out at 0.316 ×10⁻⁶ cm/s.

`CC[C@H](C)[C@@H]1NC(=O)[C@@H](CC(C)C)NC(=O)[C@@H]2CCCN2C(=O)[C@@H]2CCCN2C(=O)[C@@H](CC(C)C)NC(=O)[C@@H]2CCCN2C(=O)[C@H]2CCCN2C(=O)[C@@H](C(C)C)NC(=O)[C@@H](C)N(C)C1=O` [Design D9.14, PlI*avpPlP] (cyclo([dL]PP[dL]I[dNMeA][dV][dP]P)): the apparent permeability (Papp) was 0.421 ×10⁻⁶ cm/s. As to `CC[C@H](C)[C@@H]1NC(=O)[C@@H](C)NC(=O)[C@@H]2CCCN2C(=O)[C@H]2CCCN2C(=O)[C@@H]2CCCN2C(=O)[C@@H](C)NC(=O)[C@@H](Cc2ccccc2)NC(=O)[C@@H](CC(C)C)N(C)C(=O)[C@@H](CC(C)C)N(C)C1=O` [Design D9.15, PpPaI*l*lfa] (cyclo([dA]I[dNMeL][dNMeL][dF][dA]P[dP]P)), the Papp was found to be 0.341 ×10⁻⁶ cm/s.

`CC[C@@H](C)[C@H]1NC(=O)[C@H]2CCCN2C(=O)[C@@H](C)NC(=O)[C@@H](CC(C)C)N(C)C(=O)[C@H]([C@@H](C)CC)NC(=O)[C@@H](C(C)C)NC(=O)[C@@H](CC(C)C)N(C)C(=O)[C@@H]2CCCN2C(=O)[C@@H]2CCCN2C1=O` [Design D9.26, piPP*lvI*la] (cyclo(I[dNMeL][dA][dP][dI]PP[dNMeL][dV])): the Papp was 1.99 ×10⁻⁶ cm/s. The figure for `CSCC[C@@H]1NC(=O)[C@@H](C)N(C)C(=O)[C@@H]2CCCN2C(=O)[C@@H](CC(C)C)NC(=O)[C@H](CC(C)C)N(C)C(=O)[C@H]2CCCN2C(=O)[C@H](CC(C)C)NC(=O)[C@@H](CC(C)C)NC(=O)[C@@H](C)NC1=O` [Design D9.28, lLp*LlP*aMa] (cyclo(L[dP][NMeL][dL]P[dNMeA]M[dA][dL])) is 1.57 ×10⁻⁶ cm/s; for `CC(C)C[C@@H]1C(=O)N[C@H](C)C(=O)N[C@@H](C(C)C)C(=O)N2CCC[C@@H]2C(=O)N[C@H](C(C)C)C(=O)N2CCC[C@@H]2C(=O)N2CCC[C@H]2C(=O)N[C@H](C)C(=O)N(C)[C@H](CC(C)C)C(=O)N1C` [Design D9.29, vpPa*l*laVp] (cyclo([dA][dNMeL][dNMeL][dA]V[dP][dV][dP]P)) it is 0.664 ×10⁻⁶ cm/s; for `CC[C@@H](C)[C@H]1NC(=O)[C@H](CC(C)C)NC(=O)[C@@H](C)N(C)C(=O)[C@@H]2CCCN2C(=O)[C@H](C)NC(=O)[C@@H](CC(C)C)NC(=O)[C@H]2CCCN2C(=O)[C@H](C(C)C)NC(=O)[C@@H](CC(C)C)N(C)C1=O` [Design D9.30, plAP*aLi*lV] (cyclo(AP[dNMeA]L[dI][dNMeL]V[dP][dL])) it is 1.6 ×10⁻⁶ cm/s. The figure for `CC[C@@H](C)[C@H]1NC(=O)[C@H](Cc2ccccc2)NC(=O)[C@@H](C)NC(=O)[C@@H](CC(C)C)N(C)C(=O)[C@@H]2CCCN2C(=O)[C@H](C)NC(=O)[C@H]2CCCN2C(=O)[C@@H]2CCCN2C(=O)[C@@H](Cc2ccccc2)NC1=O` [Design D9.41, PpAP*laFif] (cyclo(AP[dNMeL][dA]F[dI][dF]P[dP])) is 1.02 ×10⁻⁶ cm/s; for `CC[C@H](C)[C@@H]1NC(=O)[C@@H](C(C)C)NC(=O)[C@@H]2CCCN2C(=O)[C@@H](CC(C)C)N(C)C(=O)[C@@H](C(C)C)NC(=O)[C@H](CC(C)C)N(C)C(=O)[C@H]2CCCN2C(=O)[C@@H](C)NC(=O)[C@H](Cc2ccccc2)N(C)C(=O)[C@H]2CCCN2C1=O` [Design D10.3., Ip*Fap*Lv*lPv] (cyclo(I[dP][NMeF][dA][dP][NMeL][dV][dNMeL]P[dV])) it is 2.52 ×10⁻⁶ cm/s; for `CC(C)C[C@@H]1C(=O)N2CCC[C@@H]2C(=O)N(C)[C@@H](C(C)C)C(=O)N[C@@H](C(C)C)C(=O)N2CCC[C@H]2C(=O)N2CCC[C@@H]2C(=O)N[C@@H](C)C(=O)N[C@H](C(C)C)C(=O)N(C)[C@@H](CC(C)C)C(=O)N[C@@H](C)C(=O)N1C` [Design D10.6, PpAv*LA*lp*VV] (cyclo(A[dNMeL][dP][NMeV]VP[dP]A[dV][NMeL])) it is 0.509 ×10⁻⁶ cm/s. Next, `CC[C@@H](C)[C@H]1NC(=O)[C@H](CC(C)C)N(C)C(=O)[C@H]2CCCN2C(=O)[C@H](CC(C)C)NC(=O)[C@H](Cc2ccccc2)N(C)C(=O)[C@H](CC(C)C)N(C)C(=O)[C@@H](C(C)C)NC(=O)[C@H](C)NC(=O)[C@H]2CCCN2C(=O)[C@@H]2CCCN2C1=O` [Design D10.17, *L*FLp*LiPpAv] (cyclo(A[dV][NMeL][NMeF]L[dP][NMeL][dI]P[dP])): 2.69 ×10⁻⁶ cm/s. On to `CC[C@@H](C)[C@H]1NC(=O)[C@H](C(C)C)NC(=O)[C@H]2CCCN2C(=O)[C@@H]2CCCN2C(=O)[C@H](CC(C)C)N(C)C(=O)[C@H](C)N(C)C(=O)[C@@H](CC(C)C)N(C)C(=O)[C@H](C)NC(=O)[C@@H](Cc2ccccc2)NC(=O)[C@@H]2CCCN2C1=O` [Design D10.25, fA*l*A*LPpViP] (cyclo(A[dNMeL][NMeA][NMeL]P[dP]V[dI]P[dF])), for which the Papp stood at 0.756 ×10⁻⁶ cm/s. For the compound `CC[C@@H](C)[C@H]1NC(=O)[C@@H]2CCCN2C(=O)[C@@H](Cc2ccccc2)NC(=O)[C@H](CC(C)C)N(C)C(=O)[C@H](C)NC(=O)[C@H]2CCCN2C(=O)[C@@H]2CCCN2C(=O)[C@H](CC(C)C)NC(=O)[C@H](CC(C)C)N(C)C(=O)[C@H](C)N(C)C1=O` [Design D10.26, Pi*A*LLPpA*Lf] (cyclo(A[NMeL][dF]P[dI][NMeA][NMeL]LP[dP])), the Papp turned out to be 0.808 ×10⁻⁶ cm/s. Next, `CC(C)C[C@H]1NC(=O)[C@H](CC(C)C)N(C)C(=O)[C@@H](Cc2ccccc2)NC(=O)[C@@H](C)N(C)C(=O)[C@@H]2CCCN2C(=O)[C@H](C(C)C)NC(=O)[C@H](CC(C)C)N(C)C(=O)[C@@H](C)NC(=O)[C@@H]2CCCN2C(=O)[C@H]2CCCN2C1=O` [Design D10.32, P*af*LlpPa*LV] (cyclo([dA][NMeL]VP[dNMeA][dF][NMeL][dL][dP]P)): 1.86 ×10⁻⁶ cm/s; `CSCC[C@@H]1NC(=O)[C@H](CC(C)C)NC(=O)[C@@H]2CCCN2C(=O)[C@H]2CCCN2C(=O)[C@@H](C)NC(=O)[C@H]2CCCN2C(=O)[C@@H](CC(C)C)NC(=O)[C@@H](C)N(C)C(=O)[C@H](CC(C)C)N(C)C(=O)[C@@H](C)N(C)C1=O` [Design D10.40, M*a*L*alpapPL] (cyclo(LM[dNMeA][NMeL][dNMeA][dL][dP][dA][dP]P)): 0.34 ×10⁻⁶ cm/s; `CC[C@@H](C)[C@H]1NC(=O)[C@@H](CC(C)C)NC(=O)[C@@H](CC(C)C)NC(=O)[C@H]2CCCN2C(=O)[C@H](CC(C)C)N(C)C(=O)[C@@H](C)N(C)C(=O)[C@@H]2CCCN2C(=O)[C@@H]([C@H](C)CC)NC(=O)[C@@H](C(C)C)NC(=O)[C@@H]2CCCN2C1=O` [Design D10.46, PviP*a*Lplli] (cyclo([NMeL][dP][dL][dL][dI]P[dV][dI]P[dNMeA])): 0.388 ×10⁻⁶ cm/s.

Take `CC(C)C[C@@H]1NC(=O)[C@@H](Cc2ccccc2)N(C)C(=O)[C@H](C(C)C)NC(=O)[C@H](C)NC(=O)[C@@H](C)NC(=O)[C@@H](Cc2ccccc2)N(C)C(=O)[C@@H]2CCCN2C(=O)[C@H](C(C)C)NC(=O)[C@@H]2CCCN2C(=O)[C@@H](C)NC1=O` [Design D10.48, aPVP*faAV*fL] (cyclo(AV[dNMeF]L[dA]PVP[dNMeF][dA])): the Papp was 0.716 ×10⁻⁶ cm/s. Take `CC[C@H](C)[C@@H]1NC(=O)[C@H](Cc2ccccc2)N(C)C(=O)[C@H]2CCCN2C(=O)[C@@H](CC(C)C)N(C)C(=O)[C@@H](Cc2ccccc2)NC(=O)[C@H](C(C)C)NC(=O)[C@H](CC(C)C)NC(=O)[C@H]2CCCN2C(=O)[C@H](CC(C)C)NC(=O)[C@@H]2CCCN2C1=O` [Design D10.50, LVf*lp*FIPLp] (cyclo(IPL[dP]LV[dF][dNMeL][dP][NMeF])): the Papp is 0.628 ×10⁻⁶ cm/s. The figure for `CC[C@@H](C)[C@H]1NC(=O)[C@H]([C@@H](C)CC)NC(=O)[C@H](Cc2ccccc2)N(C)C(=O)[C@H]2CCCN2C(=O)[C@@H]([C@H](C)CC)NC(=O)[C@@H]([C@H](C)CC)N(C)C(=O)[C@H](CC(C)C)NC(=O)[C@H]2CCCN2C(=O)[C@@H]2CCCN2C(=O)[C@H](C(C)C)NC(=O)[C@H]2CCCN2C1=O` [Design D11.4, VPpL*iip*FIip] (cyclo(I[dI][dP]VP[dP]L[dNMeI][dI][dP][NMeF])) is 1.84 ×10⁻⁶ cm/s. The figure for `CC[C@@H](C)[C@H]1NC(=O)[C@H](C)NC(=O)[C@@H](CC(C)C)N(C)C(=O)[C@H](CC(C)C)N(C)C(=O)[C@H](C(C)C)NC(=O)[C@@H]2CCCN2C(=O)[C@@H](CC(C)C)N(C)C(=O)[C@@H](C)N(C)C(=O)[C@@H](Cc2ccccc2)NC(=O)[C@@H]2CCCN2C(=O)[C@H]2CCCN2C1=O` [Design D11.6, V*L*lAipPf*a*lP] (cyclo([dF][dNMeA][dNMeL]PV[NMeL][dNMeL]A[dI][dP]P)) is 1.7 ×10⁻⁶ cm/s; for `CC[C@H](C)[C@@H]1NC(=O)[C@@H](CC(C)C)N(C)C(=O)[C@H](CC(C)C)N(C)C(=O)[C@@H](Cc2ccccc2)NC(=O)[C@@H](CC(C)C)N(C)C(=O)[C@H]2CCCN2C(=O)[C@H]2CCCN2C(=O)[C@@H]2CCCN2C(=O)[C@@H](C(C)C)NC(=O)[C@@H]2CCCN2C(=O)[C@H](C)NC1=O` [Design D11.11, Ppp*lf*L*lIAPv] (cyclo(AP[dV]P[dP][dP][dNMeL][dF][NMeL][dNMeL]I)) it is 2.81 ×10⁻⁶ cm/s. `CC[C@H](C)[C@@H]1NC(=O)[C@@H]2CCCN2C(=O)[C@H]2CCCN2C(=O)[C@@H](CC(C)C)NC(=O)[C@@H](CC(C)C)N(C)C(=O)[C@@H](C(C)C)NC(=O)[C@H](C(C)C)NC(=O)[C@H]2CCCN2C(=O)[C@@H]2CCCN2C(=O)[C@H]([C@@H](C)CC)NC(=O)[C@H](C)N(C)C1=O` [Design D11.13, PpVv*llpPI*AI] (cyclo(I[NMeA]IP[dP]V[dV][dNMeL][dL][dP]P)): the apparent permeability coefficient (Papp) came to 1.43 ×10⁻⁶ cm/s.

Turning to `CC(C)C[C@@H]1NC(=O)[C@@H](C)NC(=O)[C@H]2CCCN2C(=O)[C@@H]2CCCN2C(=O)[C@@H](C(C)C)NC(=O)[C@@H](CC(C)C)N(C)C(=O)[C@H]2CCCN2C(=O)[C@H]2CCCN2C(=O)[C@@H](C)N(C)C(=O)[C@H](CC(C)C)N(C)C(=O)[C@@H](Cc2ccccc2)NC1=O` [Design D11.16, Lf*L*app*lvPpa] (cyclo(L[dF][NMeL][dNMeA][dP][dP][dNMeL][dV]P[dP][dA])), the Papp stood at 0.993 ×10⁻⁶ cm/s.
